Reference: patent US20080255134A1 (Artesian Therapeutics, Inc., priority 2004, published 2008)
Where two headings read alike, the source gives them in different places.

Experiments:
[1] = system: White New Zealand male rabbits; experiment: In vivo hemodynamic effects of compounds administered alone (Protocol 2); design: species or system rabbit
Method: (§1) Studies were performed on White New Zealand male rabbits (2-3 kg weight). Animals were initially anesthetized with ketamine (50 mg/kg; IM) and xylazine (6 mg/kg, IM). Subsequently, animals were intubated (via tracheotomy; 3 mm tube) and ventilated with 2% isoflurane (mixed in 95% O2+5% CO2). Each rabbit was instrumented for LV pressure (3F Millar catheter) through right carotid artery, arterial pressure (3F catheter, Cook Instruments) through left femoral artery, which was connected to a fluid-filled pressure transducer (BD Instruments), and ECG. Both pressure transducers were zeroed against atmospheric pressure, and calibrated before each study using an analog manometer. Upon completion of instrumentation, isoflurane was reduced to 1.25%, and the animal was covered for maintenance of body core temperature. Arterial and LV blood pressures (LVP) and the ECG signals were simultaneously digitally recorded on a PC. The recording system (Gould Instruments) and the corresponding software (Ponema, Gould Instruments) facilitated detailed calculation of various parameters directly from all signals and record on a separate file with a 1 sec resolution. Upon completion of the study protocol, rabbits were euthenized by isoflurane overdose (5% for at least 1 minute) and cardiac arrest through IV infusion of 5 ml 3 molar potassium chloride.
(§2) Once the physiological variables were stable, effects of each drug on hemodynamics and ECG were determined based on two different protocols: 1) infusion of a compound of the present invention to determine the effects of the compound itself mainly on contractility, and other hemodynamic indices; and 2) infusion of a compound of the present invention while the system was challenged with 0.5 ug/kg isoproterenol to determine the beta-adrenergic antagonism properties of each tested compound.
(§3) White New Zealand male rabbits (2-3 kg) were anesthetized and ventilated (95% O2+5% CO2) with 1.25% isoflurane. Each animal was instrumented for LV pressure (Millar, through left carotid artery), arterial pressure (left femoral artery), infusion (jugular vein), and electrocardiogram. The animals were administered intravenously based on one of these protocols:
Protocol 2: PDE3 inhibition (effects of compounds when administered alone).

[2] = system: White New Zealand male rabbits; experiment: In vivo β-adrenergic blockade, isoproterenol challenge (Protocol 1); design: species or system rabbit
Method: as §1, §2, §3
Protocol 1: β-adrenergic blockade (isoproterenol challenge).

PDE3 = biological target: T1, PDE3 (Homo sapiens, UniProt Q14432); experiment: In vitro assay for cAMP PDE-3 inhibitory activity; assay type: biochemical
T1 construct: from tissue; host or cells: human platelets
Method: Human platelet cyclic AMP phosphodiesterase was prepared according to the method of Alvarez et al., Mol. Pharmacol. 29: 554 (1986). The PDE incubation medium contained 10 mM Tris-HCl buffer, pH 7.7, 10 mM MgSO4, and 1 μM […] (0.2 μCi) in a total volume of 1.0 mL. Test compounds were dissolved in DMSO immediately prior to addition to the incubation medium, and the resulting mixture was allowed to stand for 10 minutes prior to the addition of enzyme. Following the addition of PDE, the contents were mixed and incubated for 10 minutes at 30° C. Three assays each were performed for each of five test compound concentrations, the mean of the determinations (n=3) at each concentration was plotted, and IC50 values were determined graphically.
(§4) The ability of Compounds 25 and 8c to inhibit PDE3 and β-adrenergic receptor activity was examined both in vitro and in vivo. […] Non-selective β-adrenergic and β1-adrenergic radioligand binding assays were performed using rat cortical membranes; β2-adrenergic receptor assays were performed using membranes isolated from CHO cells expressing human, recombinant b2-adrenergic receptor; non-selective α1-adrenergic receptor assays were performed using rat forebrain membranes; and PDE3 binding assays were performed on human platelets. Values in percent illustrate percent inhibition at 1000 nM concentration.

[3] = system: White New Zealand male rabbits; experiment: In vivo β-adrenergic blockade, isoproterenol challenge (Protocol 1); design: species or system rabbit; dose or concentration left out as unconfirmed; conditions: during isoproterenol challenge, intravenous, FIG. 10
[4] = system: isolated ventricular myocytes; experiment: Sarcomere shortening (contractility) in isolated ventricular myocytes; assay type: cell-based, rabbit
Method: […] Isoproterenol, a potent β-Adrenergic agonist, can produce large increases in cardiac contraction, calcium transient amplitude, and the rates of relaxation (acceleration of relaxation or lusitropic effect). The effects of isoproterenol are then antagonized with different concentrations of a compound of the present invention.
Cardiac myocytes were digested from healthy white New Zealand male rabbits (3-5 lbs), with enzymatic digestion. Briefly, each animal is anesthetized with ketamine (50 mg/kg) and xylazine (6 mg/kg)-IM injection in hind limb. Once the animal was sedated (˜10-15 min), 0.1-0.3 ml of pentobarbital was injected into the ear vein. The heart was exposed by a cut just below the rib-cage and bilateral thoracotomy and removed rapidly ensuring that aorta remains intact. The heart was immediately placed in oxygenated NT with Ca^2+ placed on ice for rinsing the blood out, cleared from vessels and pericardium, cannulated and maintained at 37° C. The heart was retrogradedly perfused and tissue digested with collagenase and protease. Digested myocytes were subsequently stored in 0.1 mM Ca^2+ normal tyrodes for further analyses. Sarcomere length changes upon treatment with test compounds were recorded at 37° C. in the presence of 2 mM calcium and analyzed with an IonOptix system. Sarcomere length data was acquired for each myocyte over an average of 10 beats duration, at pacing rates of 1, 2, and 3 Hz. Basal percent sarcomere shortening and length-frequency relation of each myocyte was evaluated, and serve as a measure of cellular viability.
In vitro studies were performed using rabbit ventricular tissue, to examine the effects of Compounds 25 and 8c on myocyte contractility. New Zealand male rabbits (1.5-2.5 kg) were anesthetized with ketamine (50 mg/kg) and xylazine (6 mg/kg)-IM. The heart was exposed and removed rapidly to ensure that the aorta remained intact. The ventricular tissue was digested enzymatically. Sarcomere shortening was measured in the presence of 2 mM calcium at 37° C. using an IonOptix system; reported values were at 2 Hz pacing frequency.

[5] = biological target: T2, human recombinant beta-1 receptors (Homo sapiens, UniProt P08588); experiment: β1-receptor radioligand binding, [125I] iodocyanopindolol, CHO-REX16 cells; conditions: at 100 nM
T2 construct: expressed in transfected cells; host or cells: CHO-REX16 cells
Method: […] receptor binding was measured in human recombinant beta-1 receptors expressed in CHO-REX16 cells, using [^125I] (-) iodocyanopindolol (2000 Ci/mmol) as the radioligand, as described in Kalaria et al., J. Neurochem. 53: 1772-81 (1998), and Minneman et al., Mol. Pharmacol. 16: 34-46 (1979).

[6] = biological target: T3, human recombinant beta-2 receptors (Homo sapiens, UniProt P07550); experiment: β2-receptor radioligand binding, [125I] iodocyanopindolol, CHO-WT21 cells
T3 construct: expressed in transfected cells; host or cells: CHO-WT21 cells
Method: (§5) Non-selective β-adrenergic and β1-adrenergic radioligand binding assays were performed using rat cortical membranes; β2-adrenergic receptor assays were performed using membranes isolated from CHO cells expressing human, recombinant b2-adrenergic receptor; non-selective α1-adrenergic receptor assays were performed using rat forebrain membranes; and PDE3 binding assays were performed on human platelets. Values in percent illustrate percent inhibition at 1000 nM concentration.

β1-adrenergic receptor = biological target: T4, β1-adrenergic receptor (Rattus norvegicus, UniProt P18090); experiment: β1-adrenergic radioligand binding assay using rat cortical membranes
T4 construct: from tissue; host or cells: rat cortical membranes
Method: as §5

[7] = system: human fetal cardiac fibroblasts; experiment: Cyclic-AMP production by fluorescence (intrinsic sympathomimetic activity); assay type: cell-based; conditions: IBMX (750 μM) present; compared to isoproterenol or forskolin; any concentration tested
Method: The effect of Compound 8c on cyclic-AMP production was determined in human fetal cardiac fibroblasts by fluorescence, presented in FIG. 18 as [F−Fo)/Fo], mean±SEM, N=4. IBMX (750 μM) was present in all assays.

[8] = biological target: beta-receptors from rat cortical membranes; experiment: Non-specific β-receptor radioligand binding, [3H]DHA; conditions: read-out: Non-selective β-adrenergic IC50
Method: as §5

α1-adrenergic receptor = experiment: Non-selective α1-adrenergic receptor assay using rat forebrain membranes; assay type: binding
Method: as §4

T1 sequence (Q14432 whole entry): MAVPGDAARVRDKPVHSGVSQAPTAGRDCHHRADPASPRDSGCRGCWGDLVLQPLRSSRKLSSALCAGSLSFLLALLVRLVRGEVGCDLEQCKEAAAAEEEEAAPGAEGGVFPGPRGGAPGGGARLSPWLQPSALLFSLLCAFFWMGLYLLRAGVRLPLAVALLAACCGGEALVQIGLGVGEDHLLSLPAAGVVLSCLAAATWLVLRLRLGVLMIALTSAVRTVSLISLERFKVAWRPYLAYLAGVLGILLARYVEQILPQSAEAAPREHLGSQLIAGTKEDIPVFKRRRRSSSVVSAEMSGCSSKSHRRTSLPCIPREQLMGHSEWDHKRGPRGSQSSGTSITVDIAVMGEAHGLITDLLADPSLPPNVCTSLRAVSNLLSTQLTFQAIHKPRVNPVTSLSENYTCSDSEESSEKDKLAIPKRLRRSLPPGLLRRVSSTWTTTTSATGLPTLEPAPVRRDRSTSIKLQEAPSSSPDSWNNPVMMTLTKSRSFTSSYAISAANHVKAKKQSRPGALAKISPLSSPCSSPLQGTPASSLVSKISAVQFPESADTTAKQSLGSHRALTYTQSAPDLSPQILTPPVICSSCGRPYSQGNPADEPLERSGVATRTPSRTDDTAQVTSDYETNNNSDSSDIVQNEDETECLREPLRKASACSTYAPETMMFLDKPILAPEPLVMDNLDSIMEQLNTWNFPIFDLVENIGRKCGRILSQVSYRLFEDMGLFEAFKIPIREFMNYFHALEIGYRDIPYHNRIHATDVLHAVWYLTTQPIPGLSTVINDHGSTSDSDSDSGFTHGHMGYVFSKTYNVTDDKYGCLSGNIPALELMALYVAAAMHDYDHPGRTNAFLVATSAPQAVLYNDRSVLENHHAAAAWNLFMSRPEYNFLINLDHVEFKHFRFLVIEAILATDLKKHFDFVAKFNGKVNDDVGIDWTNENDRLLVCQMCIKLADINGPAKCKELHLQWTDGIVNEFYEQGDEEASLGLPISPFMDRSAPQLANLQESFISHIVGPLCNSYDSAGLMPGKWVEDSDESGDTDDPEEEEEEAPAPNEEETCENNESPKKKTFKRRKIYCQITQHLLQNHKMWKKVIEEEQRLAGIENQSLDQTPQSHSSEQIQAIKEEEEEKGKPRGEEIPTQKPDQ
T3 sequence (P07550 whole entry): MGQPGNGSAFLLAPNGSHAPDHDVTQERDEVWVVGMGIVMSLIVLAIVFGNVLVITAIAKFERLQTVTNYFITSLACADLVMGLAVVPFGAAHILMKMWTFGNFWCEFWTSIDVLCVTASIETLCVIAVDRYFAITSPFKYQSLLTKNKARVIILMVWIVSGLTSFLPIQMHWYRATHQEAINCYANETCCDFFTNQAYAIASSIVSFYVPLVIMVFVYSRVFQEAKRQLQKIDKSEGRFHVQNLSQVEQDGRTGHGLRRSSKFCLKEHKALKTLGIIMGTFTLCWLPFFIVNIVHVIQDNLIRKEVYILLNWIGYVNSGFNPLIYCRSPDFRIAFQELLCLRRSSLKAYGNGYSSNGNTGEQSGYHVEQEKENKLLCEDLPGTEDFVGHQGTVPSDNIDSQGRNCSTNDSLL
T4 sequence (P18090 whole entry): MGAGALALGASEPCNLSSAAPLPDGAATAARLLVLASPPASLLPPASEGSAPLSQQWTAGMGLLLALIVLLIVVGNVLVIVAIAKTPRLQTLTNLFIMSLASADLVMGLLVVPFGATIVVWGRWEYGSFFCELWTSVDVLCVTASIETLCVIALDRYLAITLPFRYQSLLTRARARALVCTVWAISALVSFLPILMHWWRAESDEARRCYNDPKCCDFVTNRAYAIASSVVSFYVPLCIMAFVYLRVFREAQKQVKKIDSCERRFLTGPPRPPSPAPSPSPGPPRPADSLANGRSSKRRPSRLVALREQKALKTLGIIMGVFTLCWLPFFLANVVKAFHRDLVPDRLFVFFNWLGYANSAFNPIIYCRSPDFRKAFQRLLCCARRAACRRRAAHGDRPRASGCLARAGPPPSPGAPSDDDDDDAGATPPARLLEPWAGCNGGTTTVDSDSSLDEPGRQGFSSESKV
T2 sequence (P08588 whole entry): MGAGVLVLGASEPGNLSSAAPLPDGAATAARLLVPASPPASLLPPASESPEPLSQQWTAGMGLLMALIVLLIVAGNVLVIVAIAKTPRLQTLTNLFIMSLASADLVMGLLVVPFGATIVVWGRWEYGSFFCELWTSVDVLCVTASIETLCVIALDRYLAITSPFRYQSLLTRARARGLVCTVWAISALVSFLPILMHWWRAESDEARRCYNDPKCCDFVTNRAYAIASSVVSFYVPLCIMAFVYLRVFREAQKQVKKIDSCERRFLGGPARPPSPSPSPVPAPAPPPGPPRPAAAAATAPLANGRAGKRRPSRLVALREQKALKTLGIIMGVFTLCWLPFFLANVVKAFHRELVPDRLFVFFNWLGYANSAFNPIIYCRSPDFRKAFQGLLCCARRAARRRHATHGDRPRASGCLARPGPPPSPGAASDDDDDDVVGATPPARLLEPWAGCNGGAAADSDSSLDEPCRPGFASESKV

IC50 (PDE3; human platelet cyclic AMP phosphodiesterase, bound stated, read-out: PDE3 inhibition IC50): < 1000 nM | IC50 (PDE3; human platelets, read-out: PDE3 IC50): 150 nM | inhibition at 0.1 µM [5]: > 25% | inhibition at 0.1 µM ([6]; at 100 nM): > 25% | IC50 ([6]; membranes from CHO cells expressing human recombinant β2-adrenergic receptor): 0.8 nM | IC50 (β1-adrenergic receptor): 5 nM | IC50 [8]: 14 nM | IC50 (α1-adrenergic receptor): 226 nM
SMILES: O=C1CCC(c2ccc(OCC(=O)N3CCC(NC[C@H](O)COc4ccccc4Cl)CC3)c(Cl)c2)=NN1 [Compound 8c, 6-[3-Chloro-4-(2-{4-[3-(2-chloro-phenoxy)-2-hydroxy-propylamino]-piperidin-1-yl}-2-oxo-ethoxy)-phenyl]-4,5-dihydro-2H-pyridazin-3-one]
heart rate when administered alone ([1]; Protocol 2, with and without atropine and bilateral vagotomy (FIG. 16)): did not increase heart rate | mean arterial pressure ([1]; doses that completely diminished isoproterenol-dependent increase in heart rate, Protocol 2, FIG. 15): did not have a significant effect | left ventricular contractility when administered alone ([1]; protocol 2, relative to control, FIGS. 2, 12): increased or maintained contractility in a dose-dependent manner | decrease of left ventricular contractility (% of isoproterenol effect) ([2]; doses that completely diminished isoproterenol-dependent increase in heart rate: atenolol 1 mg/kg, carvedilol 0.3 mg/kg, Compound 8c 1 mg/kg, mean±SEM): 73±4% | β-adrenergic antagonism on heart rate (HR) ([2]; during isoproterenol challenge (0.5 μg/kg), FIG. 11): dose-dependent β-adrenergic antagonism | β-adrenergic antagonism on left ventricular contractility [3]: potent dose-dependent β-adrenergic antagonism | blocking of isoproterenol effect on myocyte contractility ([4]; 0.1 μM isoproterenol (not shown)): blocking the effects of 0.1 mM isoproterenol | contractility (sarcomere shortening) in isolated ventricular myocytes ([4]; 2 mM calcium, 37° C., 2 Hz pacing frequency): increased contractility | intrinsic sympathomimetic activity (cyclic-AMP production) [7]: did not possess intrinsic sympathomimetic activity
